Values quoted from earlier work, collected in US8372995B2, “Crystalline solid forms of tigecycline and methods of preparing same” (priority 2005, dated 2013).

Assays:
[1] = system: organisms carrying either of the two major forms of tetracycline resistance: efflux and ribosomal protection
[2] = system: vancomycin-resistant enterococci
[3] = oral
[4] = system: penicillin-resistant Streptococcus pneumoniae
[5] = system: methicillin-resistant Staphylococcus aureus

Compound: CN(C)c1cc(NC(=O)CNC(C)(C)C)c(O)c2c1C[C@H]1C[C@H]3[C@H](N(C)C)C(O)=C(C(N)=O)C(=O)[C@@]3(O)C(O)=C1C2=O [Tigecycline]
- activity against organisms carrying tetracycline resistance (efflux, ribosomal protection) [1]: active
- activity against vancomycin-resistant enterococci [2]: active
- bioavailability when given orally [3]: generally poor
- activity against penicillin-resistant Streptococcus pneumoniae [4]: active
- activity against methicillin-resistant Staphylococcus aureus [5]: active
